# According to the supplement of paper PMC6045584:
# ± gives the standard deviation of the averaged measurements.
# Compound: COCC[n+]1c2c(n(Cc3cnccn3)c1C)C(=O)c1ccccc1C2=O [YM155]
# Assay: surviving fraction relative to DMSO-only wells; higher = less growth inhibition
# Settings: 0.5 nM; exposure time: 5 days
# Outline: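 Log-phase tumour cell lines, 250–500 cells per well in 384-well plates, received inhibitors at 0.5, 1, 5, 10, 50, 100, 500 and 1000 nM continuously for five days, starting 24 hours after seeding. Viability was quantified with CellTiter-Glo luminescence and normalised to the median of DMSO-only wells to give surviving fraction. Three screens were run per line, and a line stayed in only with replicate Pearson r >0.7 and median Z' >0.3.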
row,Test System,surviving fraction
1,JURKAT HAEMATOPOIETIC AND LYMPHOID TISSUE,1.02 ± 0.062
2,SJSA1 BONE,1 ± 0.059
3,YAMATO SYNOVIAL,0.656 ± 0.066
4,C33A CERVIX,0.816 ± 0.047
5,PCI30 HEADNECK,0.933 ± 0.064
6,SCC003 HEADNECK,1.072 ± 0.0061
7,HUO3N1 BONE,0.984 ± 0.065
8,T47D BREAST,0.959 ± 0.013
9,NOS1 BONE,1.4 ± 0.44
10,HELA CERVIX,0.9905 ± 0.0069
11,NY BONE,0.911 ± 0.035
12,CASKI CERVIX,0.914 ± 0.052
13,BT549 BREAST,1.08 ± 0.11
14,COLO320DM LARGE INTESTINE,0.981 ± 0.051
15,MDAMB361 BREAST,0.869 ± 0.069
16,HOSMNG BONE,0.934 ± 0.09
17,A549 LUNG,0.977 ± 0.029
18,CCK81 LARGE INTESTINE,0.854 ± 0.1

# Same assay, conditions: 1 nM; exposure time: 5 days
row,Test System,surviving fraction
1,JURKAT HAEMATOPOIETIC AND LYMPHOID TISSUE,1.033 ± 0.0072
2,SJSA1 BONE,1.6 ± 0.045
3,YAMATO SYNOVIAL,0.874 ± 0.067
4,C33A CERVIX,0.325 ± 0.029
5,PCI30 HEADNECK,0.84 ± 0.075
6,SCC003 HEADNECK,1.02 ± 0.071
7,HUO3N1 BONE,1.06 ± 0.015
8,T47D BREAST,0.983 ± 0.027
9,NOS1 BONE,1.03 ± 0.084
10,HELA CERVIX,0.966 ± 0.06
11,NY BONE,0.949 ± 0.017
12,CASKI CERVIX,0.93 ± 0.07
13,BT549 BREAST,1.03 ± 0.11
14,COLO320DM LARGE INTESTINE,1.01 ± 0.063
15,MDAMB361 BREAST,0.826 ± 0.073
16,HOSMNG BONE,0.929 ± 0.1
17,A549 LUNG,1.01 ± 0.034
18,CCK81 LARGE INTESTINE,0.82 ± 0.03

# Same assay, conditions: 5 nM; exposure time: 5 days
row,Test System,surviving fraction
1,JURKAT HAEMATOPOIETIC AND LYMPHOID TISSUE,0.782 ± 0.015
2,SJSA1 BONE,1.46 ± 0.018
3,YAMATO SYNOVIAL,0.39 ± 0.039
4,C33A CERVIX,0.057 ± 0.032
5,PCI30 HEADNECK,0.793 ± 0.021
6,SCC003 HEADNECK,0.82 ± 0.12
7,HUO3N1 BONE,1.01 ± 0.036
8,T47D BREAST,0.917 ± 0.035
9,NOS1 BONE,0.316 ± 0.034
10,HELA CERVIX,0.487 ± 0.0092
11,NY BONE,0.965 ± 0.021
12,CASKI CERVIX,0.796 ± 0.056
13,BT549 BREAST,0.99 ± 0.0076
14,COLO320DM LARGE INTESTINE,0.994 ± 0.087
15,MDAMB361 BREAST,0.919 ± 0.23
16,HOSMNG BONE,0.889 ± 0.096
17,A549 LUNG,0.971 ± 0.021
18,CCK81 LARGE INTESTINE,0.735 ± 0.076

# Same assay, conditions: 10 nM; exposure time: 5 days
row,Test System,surviving fraction
1,JURKAT HAEMATOPOIETIC AND LYMPHOID TISSUE,0.445 ± 0.014
2,SJSA1 BONE,1.59 ± 0.028
3,YAMATO SYNOVIAL,0.29 ± 0.027
4,C33A CERVIX,0.031 ± 0.0062
5,PCI30 HEADNECK,0.491 ± 0.017
6,SCC003 HEADNECK,0.502 ± 0.14
7,HUO3N1 BONE,1.06 ± 0.04
8,T47D BREAST,0.763 ± 0.0085
9,NOS1 BONE,0.17 ± 0.025
10,HELA CERVIX,0.23 ± 0.0095
11,NY BONE,0.997 ± 0.031
12,CASKI CERVIX,0.538 ± 0.046
13,BT549 BREAST,0.834 ± 0.11
14,COLO320DM LARGE INTESTINE,1.03 ± 0.17
15,MDAMB361 BREAST,0.549 ± 0.041
16,HOSMNG BONE,0.87 ± 0.11
17,A549 LUNG,0.98 ± 0.021
18,CCK81 LARGE INTESTINE,0.745 ± 0.021

# Same assay, conditions: 50 nM; exposure time: 5 days
row,Test System,surviving fraction
1,JURKAT HAEMATOPOIETIC AND LYMPHOID TISSUE,0.0363 ± 0.00058
2,SJSA1 BONE,1.7 ± 0.11
3,YAMATO SYNOVIAL,0.229 ± 0.014
4,C33A CERVIX,0.0213 ± 0.00058
5,PCI30 HEADNECK,0.04 ± 0.0027
6,SCC003 HEADNECK,0.086 ± 0.0066
7,HUO3N1 BONE,0.529 ± 0.14
8,T47D BREAST,0.212 ± 0.01
9,NOS1 BONE,0.0643 ± 0.0076
10,HELA CERVIX,0.0242 ± 0.00076
11,NY BONE,1.01 ± 0.02
12,CASKI CERVIX,0.063 ± 0.009
13,BT549 BREAST,0.256 ± 0.083
14,COLO320DM LARGE INTESTINE,0.708 ± 0.059
15,MDAMB361 BREAST,0.224 ± 0.0076
16,HOSMNG BONE,0.198 ± 0.0064
17,A549 LUNG,0.191 ± 0.005
18,CCK81 LARGE INTESTINE,0.674 ± 0.022

# Same assay, conditions: 100 nM; exposure time: 5 days
row,Test System,surviving fraction
1,JURKAT HAEMATOPOIETIC AND LYMPHOID TISSUE,0.029
2,SJSA1 BONE,1.7 ± 0.074
3,YAMATO SYNOVIAL,0.206 ± 0.0017
4,C33A CERVIX,0.0393 ± 0.041
5,PCI30 HEADNECK,0.024 ± 0.0017
6,SCC003 HEADNECK,0.052 ± 0.0046
7,HUO3N1 BONE,0.477 ± 0.046
8,T47D BREAST,0.131 ± 0.01
9,NOS1 BONE,0.048 ± 0.0062
10,HELA CERVIX,0.021 ± 0.0013
11,NY BONE,0.988 ± 0.037
12,CASKI CERVIX,0.0337 ± 0.0011
13,BT549 BREAST,0.0713 ± 0.018
14,COLO320DM LARGE INTESTINE,0.528 ± 0.057
15,MDAMB361 BREAST,0.191 ± 0.022
16,HOSMNG BONE,0.132 ± 0.017
17,A549 LUNG,0.12 ± 0.0047
18,CCK81 LARGE INTESTINE,0.798 ± 0.073

# Same assay, conditions: 500 nM; exposure time: 5 days
row,Test System,surviving fraction
1,JURKAT HAEMATOPOIETIC AND LYMPHOID TISSUE,0.027
2,SJSA1 BONE,1.6 ± 0.15
3,YAMATO SYNOVIAL,0.191 ± 0.015
4,C33A CERVIX,0.0193 ± 0.0076
5,PCI30 HEADNECK,0.021 ± 0.0017
6,SCC003 HEADNECK,0.024
7,HUO3N1 BONE,0.137 ± 0.0093
8,T47D BREAST,0.0481 ± 0.0042
9,NOS1 BONE,0.0337 ± 0.0058
10,HELA CERVIX,0.0187 ± 0.00058
11,NY BONE,0.449 ± 0.023
12,CASKI CERVIX,0.0223 ± 0.0015
13,BT549 BREAST,0.029 ± 0.008
14,COLO320DM LARGE INTESTINE,0.231 ± 0.013
15,MDAMB361 BREAST,0.103 ± 0.0066
16,HOSMNG BONE,0.0837 ± 0.04
17,A549 LUNG,0.024
18,CCK81 LARGE INTESTINE,0.719 ± 0.036

# Same assay, conditions: 1000 nM; exposure time: 5 days
row,Test System,surviving fraction
1,JURKAT HAEMATOPOIETIC AND LYMPHOID TISSUE,0.0317 ± 0.00058
2,SJSA1 BONE,1.53 ± 0.16
3,YAMATO SYNOVIAL,0.267 ± 0.016
4,C33A CERVIX,0.0353 ± 0.015
5,PCI30 HEADNECK,0.0233 ± 0.00058
6,SCC003 HEADNECK,0.025 ± 0.0017
7,HUO3N1 BONE,0.0927 ± 0.0065
8,T47D BREAST,0.0483 ± 0.0017
9,NOS1 BONE,0.0323 ± 0.0025
10,HELA CERVIX,0.0228 ± 0.00076
11,NY BONE,0.346 ± 0.0047
12,CASKI CERVIX,0.0267 ± 0.0015
13,BT549 BREAST,0.0307 ± 0.0023
14,COLO320DM LARGE INTESTINE,0.201 ± 0.012
